Data as given in ChEMBL document CHEMBL5321290, “Discovery of the Diphenyl 6-Oxo-1,6-dihydropyridazine-3-carboxylate/carboxamide Analogue J27 for the Treatment of Acute Lung Injury and Sepsis by Targeting JNK2 and Inhibiting the JNK2-NF-κB/MAPK Pathway” (J Med Chem, 2023).
Active and inactive are the calls of the source. The rule behind the calls is not given here.

Legend:
Mus musculus [1] = assay: Antiinflammatory activity against LPS-induced acute lung injury C57 mouse model assessed as decrease in LPS-induced IL-6level in blood at 20 mg/kg, po thrice at 12 hrs interval; format: functional, organism-based
Mus musculus [2] = assay: Antiinflammatory activity against LPS-induced acute lung injury C57 mouse model assessed as decrease in LPS-induced IL-6 level in serum at 20 to 40 mg/kg, po thrice at 12 hrs interval followed 30 mins treated with LPS by ELISA; format: functional, organism-based; settings: dose 20-40 mg/kg, time 36.5 hrs
[3] = Subacute toxicity in ICR mouse assessed as pathological change in heart at 500 to 100 mg/kg, IG measured for 10 days by hematoxylin and eosin dye based light microscopy; format: organism-based; settings: in vivo, po, 240 h, dose 500-100 mg/kg, time 10 day
THP-1 [4] = assay: Antiinflammatory activity against human THP-1 cells assessed as inhibition of LPS-stimulated TNFalpha release measured after 30 mins by ELISA; format: functional; settings: 0.5 h
[5] = target: Transcription factor p65 (Mus musculus) (UniProt Q04207); assay: Inhibition of P65 entry into nucleus in mouse J774A.1 cells assessed as density quantification pretreated at 10 uM for 2 hrs followed by induced with LPS for 30 mins by immunofluorescence analysis; format: cell-based; settings: J774.1, time 2.5 hrs
[6] = target: T1, Mitogen-activated protein kinase kinase kinase 7 (Homo sapiens) (UniProt O43318); assay: Inhibition of TAK1 (unknown origin) assessed as inhibition rate at 10 uM by SPR analysis relative to control
T1 sequence (whole entry): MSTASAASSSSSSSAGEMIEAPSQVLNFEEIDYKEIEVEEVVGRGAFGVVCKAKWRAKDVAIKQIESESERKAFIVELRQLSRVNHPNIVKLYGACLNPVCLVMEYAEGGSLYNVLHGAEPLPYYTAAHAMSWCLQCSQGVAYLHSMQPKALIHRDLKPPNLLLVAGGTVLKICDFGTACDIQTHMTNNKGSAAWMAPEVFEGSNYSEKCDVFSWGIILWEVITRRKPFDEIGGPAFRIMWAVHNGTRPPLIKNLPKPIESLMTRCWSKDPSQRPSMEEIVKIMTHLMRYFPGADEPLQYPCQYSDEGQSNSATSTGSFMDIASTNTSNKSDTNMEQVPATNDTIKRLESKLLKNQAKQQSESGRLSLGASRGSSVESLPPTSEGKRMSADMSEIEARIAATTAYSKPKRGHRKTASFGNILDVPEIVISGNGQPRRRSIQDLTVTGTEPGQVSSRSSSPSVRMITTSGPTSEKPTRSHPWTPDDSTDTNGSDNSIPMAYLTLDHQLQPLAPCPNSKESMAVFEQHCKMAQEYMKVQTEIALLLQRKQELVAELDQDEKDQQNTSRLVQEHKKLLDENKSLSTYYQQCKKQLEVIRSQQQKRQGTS

J774.A1 = assay: Antiinflammatory activity against mouse J774A.1 cells assessed as inhibition of LPS-stimulated TNFalpha mRNA expression pretreated for 2 hrs followed by stimulated with LPS by RT-qPCR analysis; format: functional, cell-based; settings: dose 2.5-10 µM
[7] = target: Mitogen-activated protein kinase 9 (Mus musculus) (UniProt Q9WTU6); assay: Binding affinity to JNK2 in protein lysate of LPS-stimulated mouse J774A.1 cells assessed as protein degradation in presence of pronase at 10 to 40 uM measured after overnight incubation by immunoblotting based drug affinity responsive target stability (DARTS) assay; format: subcellular; settings: J774.1, dose 10-40 µM
[8] = Half life in Sprague-Dawley rat at 10 mg/kg, po measured upto 24 hrs by UPLC-MS/MS analysis; format: ADME, organism-based; settings: in vivo
[9] = Cmax in Sprague-Dawley rat at 10 mg/kg, po measured upto 24 hrs by UPLC-MS/MS analysis; format: ADME, organism-based; design: time < 24 hrs, dose 10 mg/kg, route po; settings: in vivo
[10] = AUC (0 to t) in Sprague-Dawley rat at 10 mg/kg, iv measured upto 24 hrs by UPLC-MS/MS analysis; format: ADME, organism-based; design: dose 10 mg/kg, time < 24 hrs, route iv; settings: in vivo
Mus musculus [11] = assay: Antiinflammatory activity against LPS-induced acute lung injury C57 mouse model assessed as decrease in LPS-induced IL-6 level in blood at 20 mg/kg, po thrice at 12 hrs interval; format: functional, organism-based
[12] = target: Mitogen-activated protein kinase 10 (Mus musculus) (UniProt Q61831); assay: Binding affinity to JNK3 in protein lysate of LPS-stimulated mouse J774A.1 cells assessed as protein degradation in presence of pronase at 10 to 40 uM measured after overnight incubation by immunoblotting based drug affinity responsive target stability (DARTS) assay; format: subcellular; settings: J774.1, dose 10-40 µM
[13] = Cytotoxicity against mouse J774A.1 cells assessed as cell viability at 10 uM measured after 24 hrs incubation by MTT assay; format: toxicity, cell-based, J774.A1; settings: read-out: Activity
[14] = target: Transcription factor p65 (Mus musculus) (UniProt Q04207); assay: Inhibition of P65 phosphorylation in mouse J774A.1 cells pretreated at 10 uM for 2 hrs followed by induced with LPS for 30 mins by Western blot analysis; format: cell-based; settings: J774.1, time 2.5 hrs
[15] = target: T2, Inhibitor of nuclear factor kappa-B kinase subunit beta (Homo sapiens) (UniProt O14920); assay: Inhibition of IKKbeta (unknown origin) assessed as inhibition rate at 10 uM by SPR analysis relative to control
T2 sequence (whole entry): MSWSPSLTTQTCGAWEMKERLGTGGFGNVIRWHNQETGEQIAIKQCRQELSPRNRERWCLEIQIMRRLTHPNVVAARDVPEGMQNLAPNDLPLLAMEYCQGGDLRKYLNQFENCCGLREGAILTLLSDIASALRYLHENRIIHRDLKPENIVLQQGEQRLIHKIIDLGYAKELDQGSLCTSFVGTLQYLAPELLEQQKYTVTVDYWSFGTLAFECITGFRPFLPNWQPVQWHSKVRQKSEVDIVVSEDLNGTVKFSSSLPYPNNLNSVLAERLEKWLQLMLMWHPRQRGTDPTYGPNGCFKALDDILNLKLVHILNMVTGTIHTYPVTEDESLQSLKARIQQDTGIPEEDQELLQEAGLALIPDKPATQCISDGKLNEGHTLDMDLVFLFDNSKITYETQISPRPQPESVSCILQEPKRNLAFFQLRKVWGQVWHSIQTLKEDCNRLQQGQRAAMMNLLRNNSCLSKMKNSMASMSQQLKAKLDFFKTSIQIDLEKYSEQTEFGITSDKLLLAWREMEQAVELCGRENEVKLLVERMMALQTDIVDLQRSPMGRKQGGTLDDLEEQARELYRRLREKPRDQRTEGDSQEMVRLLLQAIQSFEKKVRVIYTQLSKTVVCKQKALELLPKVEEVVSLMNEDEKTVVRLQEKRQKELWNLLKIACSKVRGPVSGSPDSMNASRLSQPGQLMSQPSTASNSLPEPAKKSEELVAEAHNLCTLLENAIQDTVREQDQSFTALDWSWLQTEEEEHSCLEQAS

THP-1 [16] = assay: Antiinflammatory activity against human THP-1 cells assessed as inhibition of LPS-stimulated TNFalpha mRNA expression pretreated for 2 hrs followed by stimulated with LPS by RT-qPCR analysis; format: functional, cell-based; settings: dose 2.5-10 µM
[17] = target: Mitogen-activated protein kinase 8 (Mus musculus) (UniProt Q91Y86); assay: Binding affinity to JNK1 in protein lysate of LPS-stimulated mouse J774A.1 cells assessed as protein degradation in presence of pronase at 10 to 40 uM measured after overnight incubation by immunoblotting based drug affinity responsive target stability (DARTS) assay; format: subcellular; settings: J774.1, dose 10-40 µM
Sequence of Mitogen-activated protein kinase 8 (Mus musculus) (Q91Y86 whole entry): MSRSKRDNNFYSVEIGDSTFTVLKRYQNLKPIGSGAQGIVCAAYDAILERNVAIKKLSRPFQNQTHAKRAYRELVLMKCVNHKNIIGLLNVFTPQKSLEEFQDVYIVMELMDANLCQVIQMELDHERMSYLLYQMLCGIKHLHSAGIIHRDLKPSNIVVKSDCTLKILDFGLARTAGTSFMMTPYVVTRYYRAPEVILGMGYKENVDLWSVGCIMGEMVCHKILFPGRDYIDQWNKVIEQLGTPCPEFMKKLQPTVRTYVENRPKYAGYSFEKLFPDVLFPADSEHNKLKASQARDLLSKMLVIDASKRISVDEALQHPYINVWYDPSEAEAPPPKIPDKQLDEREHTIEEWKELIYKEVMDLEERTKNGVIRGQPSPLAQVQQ

Sequence of Transcription factor p65 (Mus musculus) (Q04207 whole entry): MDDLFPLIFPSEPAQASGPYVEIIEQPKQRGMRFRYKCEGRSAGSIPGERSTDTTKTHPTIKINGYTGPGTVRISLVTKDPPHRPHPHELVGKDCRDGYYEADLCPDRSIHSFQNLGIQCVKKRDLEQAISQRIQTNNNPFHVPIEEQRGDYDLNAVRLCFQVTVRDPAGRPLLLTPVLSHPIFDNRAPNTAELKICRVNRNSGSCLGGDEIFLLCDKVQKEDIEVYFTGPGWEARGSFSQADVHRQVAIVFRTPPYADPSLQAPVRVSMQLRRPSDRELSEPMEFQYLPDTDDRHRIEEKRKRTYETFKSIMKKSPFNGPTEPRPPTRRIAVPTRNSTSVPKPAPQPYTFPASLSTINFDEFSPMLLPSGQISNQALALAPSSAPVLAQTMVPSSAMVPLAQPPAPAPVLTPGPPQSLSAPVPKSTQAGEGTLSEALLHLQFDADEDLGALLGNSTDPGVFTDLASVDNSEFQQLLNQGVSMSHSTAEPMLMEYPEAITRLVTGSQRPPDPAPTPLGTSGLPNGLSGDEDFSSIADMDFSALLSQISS
Sequence of Mitogen-activated protein kinase 10 (Mus musculus) (Q61831 whole entry): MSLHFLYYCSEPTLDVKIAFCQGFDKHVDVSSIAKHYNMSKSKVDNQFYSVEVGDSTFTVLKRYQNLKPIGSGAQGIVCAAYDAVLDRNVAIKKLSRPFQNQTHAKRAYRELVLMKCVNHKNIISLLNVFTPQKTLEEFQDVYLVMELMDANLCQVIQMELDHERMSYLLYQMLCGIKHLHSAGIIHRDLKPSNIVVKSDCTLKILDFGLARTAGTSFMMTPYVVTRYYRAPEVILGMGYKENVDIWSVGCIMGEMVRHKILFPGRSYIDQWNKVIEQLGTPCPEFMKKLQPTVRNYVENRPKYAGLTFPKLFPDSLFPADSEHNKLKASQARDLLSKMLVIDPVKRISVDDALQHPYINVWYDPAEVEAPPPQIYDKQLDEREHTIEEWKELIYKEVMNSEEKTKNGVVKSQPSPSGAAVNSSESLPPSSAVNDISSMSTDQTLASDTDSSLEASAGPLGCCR
Sequence of Mitogen-activated protein kinase 9 (Mus musculus) (Q9WTU6 whole entry): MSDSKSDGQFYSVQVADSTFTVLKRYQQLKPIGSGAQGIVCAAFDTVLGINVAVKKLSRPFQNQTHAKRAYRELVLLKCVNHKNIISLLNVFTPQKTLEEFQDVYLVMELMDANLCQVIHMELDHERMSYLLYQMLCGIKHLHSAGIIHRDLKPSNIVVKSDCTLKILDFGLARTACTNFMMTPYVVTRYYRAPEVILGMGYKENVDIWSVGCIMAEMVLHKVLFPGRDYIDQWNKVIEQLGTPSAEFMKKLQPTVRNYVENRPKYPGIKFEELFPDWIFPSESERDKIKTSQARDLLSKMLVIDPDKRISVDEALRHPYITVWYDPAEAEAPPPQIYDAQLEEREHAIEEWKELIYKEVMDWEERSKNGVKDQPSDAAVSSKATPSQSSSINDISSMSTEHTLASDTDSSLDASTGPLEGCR

COc1cc2nccc(Oc3ccc(NC(=O)c4nn(-c5ccc(C)cc5)c(=O)cc4C)cc3)c2cc1OC
Activity (Mus musculus [1]): Active
Activity (Mus musculus [2]): Active
Activity [3]: Non-Toxic
IC50 (THP-1 [4]): 1760 nM
inhibition [5]: Active
inhibition [6]: 8.85%
Activity (J774.A1): Dose-Dependent Effect
Activity [7]: inactive
half-life [8]: 1.16 h
Cmax [9]: 1870 ng/mL
AUCt [10]: 2995.673 ng·h/mL
Activity (Mus musculus [11]): Active
Activity [12]: inactive
viability at 24 h, 10 µM [13]: > 80%
inhibition [14]: Active
inhibition [15]: -3.77%
Activity (THP-1 [16]): Dose-Dependent Effect
Activity [17]: inactive
